Patent US20200289482A1, “CYSTIC FIBROSIS TRANSMEMBRANE CONDUCTANCE REGULATOR MODULATORS FOR TREATING AUTOSOMAL DOMINANT POLYCYSTIC KIDNEY DISEASE” (The Johns Hopkins University, priority 2017, published 2020)

Assays:
AC3 = experiment: Western blot of adenylyl cyclase 3 expression; assay type: cell-based, mouse; conditions: PN cells treated with VX-809
Description: FIG. 4A, FIG. 4B, FIG. 4C, FIG. 4D, and FIG. 4E show (FIG. 4A-FIG. 4B) cAMP levels are reduced by VX-809. (FIG. 4A) cAMP levels in mouse tissue were reduced by VX-809. The kidney samples (n=6) analyzed were taken from those depicted in FIG. 1. (FIG. 4B) Confluent PN and PH cells were treated with VX-809 (10 μM) or DMSO for 16 h and then treated with forskolin (100 μM) for 30 min before the cells were harvested for the assay. Columns represent means±SEM. Statistical analysis was performed using a two-tailed Student's t-test. Each set of data is from three individual wells; Note that resting cAMP is greater in PN vs PH cells as previously shown (25). Also note that forskolin caused a large increase in cAMP. A smaller increase occurred with IBMX. However, the increase induced by forskolin alone was similar to that by IBMX plus forskolin. […] (FIG. 4C, FIG. 4D, and FIG. 4E) Adenylyl cyclase expression. (FIG. 4C) Western blot showing the expression of adenylyl cyclase (AC) 6 and AC3 in treated and control PN cells. (FIG. 4D-FIG. 4E) Columns represent means±SEM of the AC3 and AC6 expression. The data were analyzed by non-parametric t-test. The experiment was repeated four times. For all graphs, *P<0.05, **P<0.01, and ***P<0.001;
There are two classes of adenylyl cyclases that are regulated by intracellular Ca^2+: one class is activated, and the other inhibited. […]

Hsp90 = experiment: Western blot of Hsp90 in PN cells; assay type: cell-based, mouse; conditions: VX-809 10 μM 16 h
Description: FIG. 8A, FIG. 8B, FIG. 8C, FIG. 8D, FIG. 8E, FIG. 8F, FIG. 8G, and FIG. 8H show chaperone expression is altered in PH and PN cells by VX-809. (FIG. 8A) Western blot showing expression of HSP27, 70 and HSP 90 in VX-809 treated or control PN cells. […] (FIG. 8E). Western blot of HSP27, 70 and 90 in PH vs. PN cells. […] Whereas, Hsp70 is higher in PH vs. PN cells. Data were analyzed by non-parametric t test. Experiment was repeated 4-5 times. Cells were grown in 10-cm culture dishes at permissive conditions (33° C.) with γ-interferon in culture media. Cells were then transferred to non-permissive conditions at 37° C., γ-interferon free culture media and evaluated at full confluence. At day four, cells were treated with VX-809 (10 μM) for 16 h and harvested on fifth day for assay. *P<0.05., **P<0.01, ***P<0.001, ****P<0.0001; To facilitate their growth in the kidney, cysts have developed an altered network of proteins that most likely serves to protect them from stress (34). Next, it was determined whether VX-809 would alter the levels of Hsps in pkd−/− mice and in PN cells. […] Hsp 27, 70 and 90 are all elevated in cystic kidneys compared to normal controls. […] There is no change in Hsp 40. […] Both sets of data are consistent with an alteration in the heat shock response to cyst growth.

Substance: lumacaftor [VX-809]
- AC3 levels (AC3): decreased
- Hsp90 expression in PN cells (Hsp90): reduced expression
